In patent publication US9345691B2, “Beta-lactam compounds for enhancing T cell-mediated immune responses” (STEM CELL MEDICINE LTD., priority 2011, dated 2016):
Entries after “also recorded” stand apart in the source; their conditions may differ.

How the values were obtained:
human CD3 T cells = test: Pen 9 western blot of antibiotic-treated human T cells; format: cell-based; details: human T cells activated by mitogen in presence of the antibiotic
NOD mice = test: Autoimmune diabetes in NOD mice; format: in vivo, mouse
Method: NOD mice spontaneously develop diabetes mellitus similar to type I diabetes in humans. […] The mice were followed for the development of diabetes, marked by blood sugar above 300 mg/dl on 2 measurements.

CD4+ human T cells = test: Real-time PCR verification of six genes; format: cell-based; details: same RNA as gene array; cefuroxime 50 μg/ml
Method: To verify the results of the gene array, we synthesized real-time PCR primers (designed with the LightCycler probe design software (Roche)). Real-time PCR of 6 selected genes was performed using a LightCycler (Roche, Basel, Switzerland). RNA was reverse transcribed to cDNA from 1 μg of total RNA, which was then subjected to quantitative RT-PCR performed essentially according to the manufacturer's instructions. Specific primer pairs were used to amplify specific genes in the presence of 3 mM MgCl2. PCR was performed in triplicate in a total volume of 20 μl of LightCycler HotStart DNA SYBR Green I mix (Roche) containing primer and 5 μl of cDNA. […] Denaturation was performed for 15 s at 95° C., annealing was performed in 60° C., and the extension was performed at 72° C. for 20 s, with fluorescence detection at 72° C. after each cycle. After the final cycle, melting point analyses of all samples were performed within the range of 62-95° C. with continuous fluorescence detection. […]
The Human Autoimmune and Inflammatory Response Gene Array (SuperArray Bioscience corporation, Frederick, Md., USA) was used for analysis of gene expression by the T cells. […] To verify the results detected by the gene array study, a panel of six genes was designed and tested by real-time PCR: CCR4, ACVR2, JAK1, STAT4, TLR2 and NFKBIE. […]

[1] = system: Adjuvant Arthritis (AA) in rats; test: Adjuvant arthritis (AA); format: in vivo, rat; details: IP 5 mg (25 mg/kg) once every 2 or 3 days from day 12, versus non-injected control
Method: Heat-killed Mycobacterium tuberculosis (Mt) strain H37Ra (Difco) was finely ground using a pestle and mortar, and was suspended to a final concentration of 10 mg/ml in IFA. Test rats were injected at the base of the tail with a total of 100 μl of the Mt suspension. The day of AA induction was designated as day 0. Disease severity was assessed by direct observation of all four limbs in each animal. A relative score between 0 and 4 was assigned to each limb based on the degree of joint inflammation, redness, and deformity; thus, the maximum possible score for an individual animal was 16. The results are presented as the mean±SE of total score.
To test the effects of antibiotics in vivo, active experimental autoimmune encephalomyelitis (EAE) was induced in rats as described above, and the injected rats (4 per group) were treated with oral cefuroxime axetil in the drinking water from day 7 postinduction (“Oral T Cefurox.”). One 500 mg tablet was dissolved in 500 ml of drinking water. The daily dose was 50 mg/kg, in the range of therapeutic pediatric human doses. As a control, the intravenous cefuroxime sodium preparation, which is not absorbed into the circulation, was administered orally (“Oral inj. Cefurox.”). A second control group was given water without antibiotics (“Control”). […]

[2] = system: experimental autoimmune encephalomyelitis (EAE) in rats; test: Actively induced EAE; format: in vivo, rat; details: oral in drinking water from day 7 postinduction, daily dose 50 mg/kg, versus two control groups

Compound	reactivity of Pen 9 antibody with lysates of treated T cells (human CD3 T cells)	effect on type I diabetes (NOD mice; NOD mice)	incidence of diabetes (NOD mice; NOD mice at 5.7 months, SC weekly, ampicillin 1300 μg, ceftriaxone 675 μg per mouse)	expression of CCR4, ACVR2, JAK1, STAT4, TLR2 and NFKBIE by real-time PCR (CD4+ human T cells)	arthritis scores [1]	severity of actively induced EAE [2]
CC1(C)S[C@@H]2[C@H](NC(=O)[C@H](N)c3ccccc3)C(=O)N2[C@H]1C(=O)O [ampicillin]	did not bind	Inhibition of type I diabetes in NOD mice	30%	–	–	–
CO/N=C(\C(=O)N[C@@H]1C(=O)N2C(C(=O)O)=C(COC(N)=O)CS[C@H]12)c1ccco1 [cefuroxime]	–	–	–	suppressed	significantly more severe arthritis scores; also recorded: Exacerbation of adjuvant-induced arthritis	increases the severity of actively induced EAE
